Results from PubChem BioAssay (NCI).
“And” between values parts separate entries of the source, which are not always exact repeats. Identical values can stand only once.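 Tested at 5 concentrations; 48 h exposure; 96-well plates; endpoints linearly interpolated, else capped at highest concentration. GI50 is the concentration that inhibits growth by half. TGI: total growth inhibition.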

Assays:
Assay in all cases: NCI tumour cell line growth inhibition, 48 h
OVCAR-8 ovarian = system: OVCAR-8 ovarian
HT29 colon = system: HT29 colon
NCI-H522 lung = system: NCI-H522 lung
COLO 205 colon = system: COLO 205 colon
U251 CNS = system: U251 CNS
A549 NSCLC = system: A549 NSCLC
MDA-MB-435 = system: MDA-MB-435
HS 578T breast = system: HS 578T breast
DU-145 prostate = system: DU-145 prostate
T-47D breast = system: T-47D breast

| Structure (SMILES) | TGI (OVCAR-8 ovarian) | TGI (HT29 colon) [µM] | TGI (NCI-H522 lung) | TGI (COLO 205 colon) | TGI (U251 CNS) [µM] | TGI (A549 NSCLC) [µM] | GI50 (OVCAR-8 ovarian) [µM] | GI50 (HT29 colon) [µM] | GI50 (NCI-H522 lung) [µM] | GI50 (COLO 205 colon) [µM] | GI50 (MDA-MB-435) [µM] | TGI (MDA-MB-435) [µM] | GI50 (U251 CNS) [µM] | GI50 (A549 NSCLC) [µM] | GI50 (HS 578T breast) [µM] | TGI (HS 578T breast) [µM] | GI50 (DU-145 prostate) [µM] | TGI (DU-145 prostate) [µM] | GI50 (T-47D breast) [µM] | TGI (T-47D breast) |
| --- | --- | --- | --- | --- | --- | --- | --- | --- | --- | --- | --- | --- | --- | --- | --- | --- | --- | --- | --- | --- |
| Cc1cc2c(cc1C)[n+](=O)c(C(=O)CC(=O)C(=O)Nc1ccccc1C)c(C)n2[O-] | > 100 µM | > 100 | > 100 µM | > 100 µM | > 100 | > 100 | – | – | – | – | – | – | – | – | – | – | – | – | – | – |
| O=C(NC(=S)Nc1ccc(-c2nc3ccccc3[nH]2)cc1)c1ccc2ccccc2c1 | > 100 µM | > 100 | > 100 µM | 46.5 µM | 18.1 | > 100 | 4.11 | 4.61 | 18.9 | 4.98 | 4.27 | > 100 | 3.62 | 3.79 | 3.09 | 9.94 | 3.9 | > 100 | – | – |
| COC(=O)c1oc([N+](=O)[O-])c(-c2ccccc2)c1-c1ccccc1 | > 100 µM | > 100 | > 100 µM | > 100 µM | > 100 | > 100 | – | – | – | – | – | – | – | – | – | – | – | – | – | – |
| O=[N+]([O-])c1cccc(C=NC23CC4CC(CC(C4)C2)C3)c1 | > 100 µM | > 100 | > 100 µM | > 100 µM | > 100 | > 100 | – | – | – | – | – | – | – | – | – | – | – | – | – | – |
| CCOc1ccc(N=C2NC(=O)C(CC(=O)Nc3ccc(Cl)cc3Cl)S2)cc1 (configuration not stated) | > 100 µM | > 100 | – | > 100 µM | > 100 | > 100 | – | – | – | – | – | – | – | – | – | – | – | – | – | – |
| COC1OC(CO)C(O)C(NC(=O)N(C)N=O)C1O (configuration not stated) | > 100 µM | > 100 | > 100 µM | > 100 µM | > 100 | > 100 | – | – | – | – | – | – | – | – | – | – | – | – | – | – |
| Cc1ccccc1C(C#N)/C(=N/NC(N)=S)C(=O)Nc1c(C)cccc1C (configuration not stated) | > 100 µM | > 100 | – | > 100 µM | > 100 | > 100 | – | – | – | – | – | – | – | – | – | – | – | – | – | – |
| Cc1cc2c(=O)cc(-c3ccc(O)cc3)oc2c(C(=O)O)c1C | > 100 µM | > 100 | > 100 µM | > 100 µM | > 100 | > 100 | – | – | – | – | – | – | – | – | – | – | – | – | – | – |
| Cc1cc2c(=O)cc(-c3ccc(Cl)cc3Cl)oc2c(C(=O)O)c1C | > 100 µM | > 100 | > 100 µM | > 100 µM | > 100 | > 100 | – | – | – | – | – | – | – | – | – | – | – | – | – | – |
| Nc1cc2c(c3ccccc13)C(CCl)CN2C(=O)c1cc2cc(NC(=O)c3cc4ccccc4o3)ccc2[nH]1 (configuration not stated) | 0.00407 µM and < 0.11 µM | – | 0.00332 µM and < 0.11 µM | – | – | – | > 0.11 | – | > 0.11 | – | > 0.11 | < 0.11 | – | – | – | – | – | 142 | > 0.11 | – |
| N#CC1(C#N)C2C=CC(C3CC=CC32)C1(C#N)C#N (configuration not stated) | – | 21.9 | 3.18 µM | 4.3 µM and 13.5 µM | 17.6 | 21 | – | – | – | 5.5 | 9.78 | 18.8 | – | – | – | > 50 | – | 16.7 | 2.78 | 8.65 µM and 13.2 µM |
| CO[C@@H]1[C@H](N(C)C(=O)c2ccccc2)C[C@@H]2O[C@]1(C)n1c3ccccc3c3c4c(c5c6ccccc6n2c5c31)C(=O)NC4=O | > 100 µM | > 100 | – | > 100 µM | > 100 | > 100 | 94.6 | 0.745 | – | 0.398 | 0.775 | > 100 | 3.6 | 0.595 | 0.461 | > 100 | 6.81 | > 100 | 0.811 | > 100 µM |
